In ChEMBL document CHEMBL4814050, “Identification of gallic acid as a active ingredient of Syzygium aromaticum against tacrolimus-induced damage in renal epithelial LLC-PK1 cells and rat kidney” (Bioorg Med Chem Lett, 2021) one finds Activity data, which are given here for three molecules.

The structures appear in SMILES notation. The source made the active and inactive calls. The calls are words filed in the database; no cut-off is given here.

Assay [1] is described as follows: Antioxidant activity assessed as reduction in FK506-induced ROS production by […] assay. The class given is functional. The note with it: dose 0.1-100 µM. A general note: DPPH is a stable violet radical that fades when it is reduced.
In a further assay the test system is LLC-PK1. The experiment in a line: Cytoprotective activity against pig LLC-PK1 cells assessed as reduction in FK506-induced cytotoxicity incubated for 2 hrs followed by FK506 stimulation and measured after 24 hrs by MTT assay. The note with it: Sus scrofa, dose 12.5-100 µM, time 26.0 hrs. The class given is functional, cell-based.
Another assay is filed under the species Rattus norvegicus. The experiment in a line: Nephroprotective activity in Sprague-Dawley rat assessed as reduction in FK506-induced kidney dysfunction by measuring decrease in serum creatinine level measured after 14 days. The class given is functional, organism-based. The conditions noted are these: time 14.0 day.

Turning to `O=C(O[C@@H]1Cc2c(O)cc(O)cc2O[C@@H]1c1cc(O)c(O)c(O)c1)c1cc(O)c(O)c(O)c1`, the Activity entry (in assay [1]; in the assay on LLC-PK1) was “Dose-Dependent Effect” throughout.
As to `O=C(O)c1cc(O)c(O)c(O)c1`, the Activity result (in assay [1]; in the assay with LLC-PK1) was “Dose-Dependent Effect” throughout. Further, the outcome in the assay listed under Rattus norvegicus was Active.
Consider `O=C1O[C@H]([C@@H](O)CO)C(O)=C1O`, for which the outcome in assay [1] was Active.
